target: human RIP1 kinase domain (2-375) (Homo sapiens (Human), UniProt Q13546); assay: biochemical; type: biochemical; settings: Ki
In short: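 50 nM purified kinase domain from baculovirus-infected insect cells, incubated 2 h with compound in 50 mM Hepes pH 7.5, 30 mM MgCl2, 1 mM DTT, 50 uM ATP, 0.002% Brij-35, 0.5% DMSO. ADP formation read by Transcreener FP at 633 nm excitation. Ki^app fitted with the Morrison tight-binding equation.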

Chain of human RIP1 kinase domain (2-375) (Q13546 2-375): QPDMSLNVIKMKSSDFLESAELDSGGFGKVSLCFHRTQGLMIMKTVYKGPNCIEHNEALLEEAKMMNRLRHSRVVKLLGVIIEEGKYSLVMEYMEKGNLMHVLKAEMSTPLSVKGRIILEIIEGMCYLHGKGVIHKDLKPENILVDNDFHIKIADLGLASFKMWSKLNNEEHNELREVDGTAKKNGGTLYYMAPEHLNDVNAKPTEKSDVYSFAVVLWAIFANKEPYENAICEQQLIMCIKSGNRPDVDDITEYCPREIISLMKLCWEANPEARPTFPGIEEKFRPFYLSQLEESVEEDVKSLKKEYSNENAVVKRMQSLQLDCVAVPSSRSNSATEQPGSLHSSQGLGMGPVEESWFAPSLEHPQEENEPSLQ

With `CN1C(=O)[C@@H](NC(=O)c2ncn(Cc3ccccc3)n2)CCn2nc(C3CNC3)cc21` [Example 754, 1-benzyl-N-[(6S)-2-(azetidin-3-yl)-4-methyl-5-oxo-7,8-dihydro-6H-pyrazolo[1,5-a][1,3]diazepin-6-yl]-1,2,4-triazole-3-carboxamide] the Ki was 0.411 µM.

same assay, conditions: Table 5; apparent Ki (Morrison tight-binding fit); 50 nM RIP1 kinase domain, 50 uM ATP, 2 hours incubation; read-out: Ki

`C[C@@]1(C(F)(F)F)OCc2cnc(C(=O)N[C@H]3CCc4cc(F)cc(F)c4NC3=O)cc21` [Example 748, (1R)-1-methyl-N-[(3S)-7,9-difluoro-2-oxo-1,3,4,5-tetrahydro-1-benzazepin-3-yl]-1-(trifluoromethyl)-3H-furo[3,4-c]pyridine-6-carboxamide] and `C[C@@]1(C(F)(F)F)OCc2cnc(C(=O)N[C@H]3CCc4cc(F)cc(F)c4NC3=O)nc21` [Example 749, (7R)-7-methyl-N-[(3S)-7,9-difluoro-2-oxo-1,3,4,5-tetrahydro-1-benzazepin-3-yl]-7-(trifluoromethyl)-5H-furo[3,4-d]pyrimidine-2-carboxamide] are within 1.5-fold of each other in Ki: 0.014 µM for the first, 0.012 µM for the second.

First: Cc1cc2n(n1)CC[C@H](NC(=O)c1cn(Cc3ccccc3)cn1)C(=O)N2C [Example 751, 1-benzyl-N-[(6S)-2,4-dimethyl-5-oxo-7,8-dihydro-6H-pyrazolo[1,5-a][1,3]diazepin-6-yl]imidazole-4-carboxamide]
Second: CN1C(=O)[C@@H](NC(=O)c2ncn(Cc3ccccc3)n2)CCn2nc(CCO)cc21 [Example 766, 1-benzyl-N-[(6S)-2-(2-hydroxyethyl)-4-methyl-5-oxo-7,8-dihydro-6H-pyrazolo[1,5-a][1,3]diazepin-6-yl]-1,2,4-triazole-3-carboxamide]
The Ki of the first is 1.9-fold lower: 0.044 µM for the first, 0.084 µM for the second.

`CN1C(=O)[C@@H](NC(=O)c2ncn(Cc3ccccc3)n2)CCn2nc(CCN3CCOCC3)cc21` [Example 752, 1-benzyl-N-[(6S)-4-methyl-2-(2-morpholinoethyl)-5-oxo-7,8-dihydro-6H-pyrazolo[1,5-a][1,3]diazepin-6-yl]-1,2,4-triazole-3-carboxamide] and `CN1C(=O)[C@@H](NC(=O)c2ncn(Cc3ccccc3)n2)CCn2nc(CN3CCOCC3)cc21` [Example 779, (S)-1-benzyl-N-(4-methyl-2-(morpholinomethyl)-5-oxo-5,6,7,8-tetrahydro-4H-pyrazolo[1,5-a][1,3]diazepin-6-yl)-1H-1,2,4-triazole-3-carboxamide] are within 1.5-fold of each other in Ki: 0.116 µM for the first, 0.155 µM for the second.

First: CN1C(=O)[C@@H](NC(=O)c2ncn(Cc3ccccc3F)n2)CCn2nc(CCN3CCOCC3)cc21 [Example 753]
Second: CN1C(=O)[C@@H](NC(=O)c2ncn(Cc3ccccc3F)n2)CCn2nc(CCN3CC(F)C3)cc21 [Example 770, 1-[(2-fluorophenyl)methyl]-N-[(6S)-2-[2-(3-fluoroazetidin-1-yl)ethyl]-4-methyl-5-oxo-7,8-dihydro-6H-pyrazolo[1,5-a][1,3]diazepin-6-yl]-1,2,4-triazole-3-carboxamide]
The Ki of the first is 4.6-fold lower: 0.074 µM for the first, 0.337 µM for the second.

Compared with `COCCOCCc1cc2n(n1)CC[C@H](NC(=O)c1ncn(Cc3ccccc3)n1)C(=O)N2C` [Example 755, 1-benzyl-N-[(6S)-2-[2-(2-methoxyethoxy)ethyl]-4-methyl-5-oxo-7,8-dihydro-6H-pyrazolo[1,5-a][1,3]diazepin-6-yl]-1,2,4-triazole-3-carboxamide], `COCCc1cc2n(n1)CC[C@H](NC(=O)c1ncn(Cc3ccccc3)n1)C(=O)N2C` [Example 767, 1-benzyl-N-[(6S)-2-(2-methoxyethyl)-4-methyl-5-oxo-7,8-dihydro-6H-pyrazolo [1,5-a][1,3]diazepin-6-yl]-1,2,4-triazole-3-carboxamide] is 1.9-fold lower in Ki: 0.124 µM for the first, 0.064 µM for the second. The second binds more tightly here.

Compared with `CN1C(=O)[C@@H](NC(=O)c2ncn(Cc3ccccc3)n2)CCn2nc(CCN3CCC3)cc21` [Example 756], `CN1C(=O)[C@@H](NC(=O)c2ncn(Cc3ccccc3)n2)CCn2nc(CCN3CC(F)C3)cc21` [Example 769] is 2.7-fold lower in Ki: 0.623 µM for the first, 0.233 µM for the second. The second binds more tightly here.

`COC1CN(CCc2cc3n(n2)CC[C@H](NC(=O)c2ncn(Cc4ccccc4)n2)C(=O)N3C)C1` [Example 757] and `COC1CN(Cc2cc3n(n2)CC[C@H](NC(=O)c2ncn(Cc4ccccc4)n2)C(=O)N3C)C1` [Example 781, (S)-1-benzyl-N-(2-((3-methoxyazetidin-1-yl)methyl)-4-methyl-5-oxo-5,6,7,8-tetrahydro-4H-pyrazolo[1,5-a][1,3]diazepin-6-yl)-1H-1,2,4-triazole-3-carboxamide] are within 1.5-fold of each other in Ki: 0.168 µM for the first, 0.172 µM for the second.

`CCOCCc1cc2n(n1)CC[C@H](NC(=O)c1ncn(Cc3ccccc3)n1)C(=O)N2C` [Example 758] and `CCOCCc1cc2n(n1)CC[C@H](NC(=O)c1ncn(Cc3ccccc3F)n1)C(=O)N2C` [Example 763] are within 1.5-fold of each other in Ki: 0.086 µM for the first, 0.073 µM for the second.

Compared with `CN1C(=O)[C@@H](NC(=O)c2ncn(Cc3ccccc3)n2)CCn2nc(C3CN(C(=O)OC(C)(C)C)C3)cc21` [Example 759], `CN1C(=O)[C@@H](NC(=O)c2ncn(Cc3ccccc3)n2)CCn2nc(CN3CC(F)C3)cc21` [Example 782, (S)-1-benzyl-N-(2-((3-fluoroazetidin-1-yl)methyl)-4-methyl-5-oxo-5,6,7,8-tetrahydro-4H-pyrazolo[1,5-a][1,3]diazepin-6-yl)-1H-1,2,4-triazole-3-carboxamide] is 5.9-fold higher in Ki: 0.024 µM for the first, 0.142 µM for the second. The first binds more tightly here.

First: COCCOCCc1cc2n(n1)CC[C@H](NC(=O)c1ncn(Cc3ccccc3F)n1)C(=O)N2C [Example 760, 1-[(2-fluorophenyl)methyl]-N-[(6S)-2-[2(2-methoxyethoxy)ethyl]-4-methyl-5-oxo-7,8-dihydro-6H-pyrazolo[1,5-a][1,3]diazepin-6-yl]-1,2,4-triazole-3-carboxamide]
Second: COCCc1cc2n(n1)CC[C@H](NC(=O)c1ncn(Cc3ccccc3F)n1)C(=O)N2C [Example 768]
The Ki of the first is 1.5-fold higher: 0.077 µM for the first, 0.051 µM for the second.

`CN1C(=O)[C@@H](NC(=O)c2ncn(Cc3ccccc3)n2)CCn2nc(CCN3CC4CC3CO4)cc21` (stereo partly drawn) [Example 761, 1-benzyl-N-[(6S)-4-methyl-2-[2-(2-oxa-5-azabicyclo[2.2.1]heptan-5-yl)ethyl]-5-oxo-7,8-dihydro-6H-pyrazolo[1,5-a][1,3]diazepin-6-yl]-1,2,4-triazole-3-carboxamide] and `CN1C(=O)[C@@H](NC(=O)c2ncn(Cc3ccccc3F)n2)CCn2nc(CCN3CC4CC3CO4)cc21` (stereo partly drawn) [Example 762] are within 1.5-fold of each other in Ki: 0.159 µM for the first, 0.182 µM for the second.

`COC1CN(CCc2cc3n(n2)CC[C@H](NC(=O)c2ncn(Cc4ccccc4F)n2)C(=O)N3C)C1` [Example 771, 1-[(2-fluorophenyl)methyl]-N-[(6S)-2-[-(3-methoxyazetidin-1-yl)ethyl]-4-methyl-5-oxo-7,8-dihydro-6H-pyrazolo[1,5-a][1,3]diazepin-6-yl]-1,2,4-triazole-3-carboxamide] and `CN1C(=O)[C@@H](NC(=O)c2ncn(Cc3ccccc3F)n2)CCn2nc(CCN3CC(F)(F)C3)cc21` [Example 773, 1-[(2-fluorophenyl)methyl]-N-[(6S)-2-[2-(3,3-difluoroazetidin-1-yl)ethyl]-4-methyl-5-oxo-7,8-dihydro-6H-pyrazolo[1,5-a][1,3]diazepin-6-yl]-1,2,4-triazole-3-carboxamide] are within 1.5-fold of each other in Ki: 0.172 µM for the first, 0.189 µM for the second.

Going from `CN1C(=O)[C@@H](NC(=O)c2ncn(Cc3ccccc3)n2)CCn2nc(CCN3CC(F)(F)C3)cc21` [Example 772] to `CN1C(=O)[C@@H](NC(=O)c2ncn(Cc3ccccc3)n2)CCn2nc(CC3CCOCC3)cc21` [Example 774, 1-benzyl-N-[(6S)-4methyl-5-oxo-2-(tetrahydropyran-4-ylmethyl)-7,8-dihydro-6H-pyrazolo[1,5-a][1,3]diazepin-6-yl]-1,2,4-triazole-3-carboxamide], the Ki falls from 0.115 µM to 0.037 µM (3.1-fold). The second binds more tightly here.

Going from `CN1C(=O)[C@@H](NC(=O)c2nc3n(n2)CCN(C)C3c2ccccc2)COc2ccccc21` (stereo partly drawn) [Example 786, 7-methyl-N-[(3S)-5-methyl-4-oxo-2,3-dihydro-1,5-benzoxazepin-3-yl]-8-phenyl-6,8-dihydro-5H-[1,2,4]trizolo [1,5-a]pyrazine-2-carboxamide] to `CN1C(=O)[C@@H](NC(=O)c2nc3n(n2)CCNC3C(F)(F)F)COc2ccccc21` (stereo partly drawn) [Example 787, N-[(3S)-5-methyl-4-oxo-2,3-dihydro-1,5-benzoxazepin-3-yl]-8-(trifluoromethyl)-5,6,7,8-tetrahydro-[1,2,4]triazolo [1,5-a]pyrazine-2-carboxamide], the Ki rises from 0.112 µM to 0.309 µM (2.8-fold). The first binds more tightly here.

same assay, conditions: human RIP1 kinase domain (2-375), 50 uM ATP, 2 hours incubation, Transcreener ADP assay; read-out: RIP1 Ki

“(S)—N-(5-methyl-4-oxo-2,3,4,5-tetrahydrobenzo[b][1,4]oxazepin-3-yl)-6-(trifluoromethyl)-[1,2,4]triazolo[4,3-a]pyridine-3-carboxamide [Example 113]” was tested, and the Ki was 1.7 µM.

same assay, conditions: scale-up batches (Examples A-C); apparent Ki (Morrison tight-binding fit); 50 nM RIP1 kinase domain, 50 uM ATP; read-out: Ki

`CN1C(=O)[C@@H](NC(=O)c2ncn(Cc3ccccc3)n2)CCn2nc(C3CC3)cc21` [Example A, (S)-1-benzyl-N-(2-cyclopropyl-4-methyl-5-oxo-5,6,7,8-tetrahydro-4H-pyrazolo[1,5-a][1,3]diazepin-6-yl)-1H-1,2,4-triazole-3-carboxamide] and `Cc1cc2n(n1)CC[C@H](NC(=O)c1ncn(Cc3ccccc3)n1)C(=O)N2C` [Example C, (S)-1-benzyl-N-(2,4-dimethyl-5-oxo-5,6,7,8-tetrahydro-4H-pyrazolo[1,5-a][1,3]diazepin-6-yl)-1H-1,2,4-triazole-3-carboxamide] are within 1.5-fold of each other in Ki: 0.016 µM for the first, 0.022 µM for the second.

`CN1C(=O)[C@@H](NC(=O)c2ncn(Cc3ccccc3)n2)CCn2nccc21` [Example B] gave a Ki of 0.013 µM.
